Where two headings read alike, the source gives them in different places.
What was measured:
[1] = test system: PKARIIβ; assay: PKARIIβ Western blot in HepG2 cells, 60 min incubation; assay type: cell-based, human; settings: HepG2, one hour incubation
Procedure: In a second experiment, human liver cells (HepG2 cell line, American Type Culture Collection, Manassas, Va.) were grown and maintained in Dulbecco's modified eagle's medium (Gibco, Carlsbad, Calif.) containing 10% fetal bovine serum, penicillin (100 I.U./ml), and streptomycin (100 μg/ml). The cells were then incubated for 60 min with 5 mM glucose and various concentrations of enterostatin (0.001, 0.01, 0.03, 0.1, 1.0 μM). After incubation, the cells were lysed and the cytosolic proteins subjected to Western blot analysis for pAMPK and PKARIIβ.

[2] = test system: C57B1/6 male mice; assay: Fasting blood glucose after enterostatin injection; assay type: in vivo, mouse
Procedure: (§1) Animals: C57B1/6 male mice were purchased from The Jackson Laboratory (Bar Harbor, Me.) at 6 weeks of age. The mice were initially housed in groups of three in acrylic cages in a room with a 12-hour light/dark cycle and with controlled temperature (22 to 23° C.) and with free access to water. The mice were fed a high fat diet (4.78 kcal/g, 56% energy as fat; Research Diets Inc, Brunswick, N.J.). The composition of the diet has been previously described (15). Body weights were measured three time per week. At 8 weeks of age, the mice were switched to single housing.
(§2) Peptide Injections: Enterostatin was dissolved in 0.1 ml saline (0.9% NaCl w/v), and given as a single dose of either 5 μg or 25 μg/mouse. Either enterostatin or saline (control) was injected intraperitoneally. In the experiments involving insulin, insulin (0.75 mU/g body weight) or saline (0.1 ml/10 g body weight; control) was injected intraperitoneally.
Enterostatin Effect on Fasting Blood Glucose. To directly test the effect of enterostatin on blood glucose, mice were fasted for 18 hours, and enterostatin (25 μg/mouse) or 0.1 ml saline vehicle was injected intraperitoneally at zero time. Blood samples were taken from the tail vein at 15, 30, 45 and 60 min after enterostatin injection. The blood samples were assayed for glucose using a glucometer.

[3] = test system: rats; settings: cited from earlier work; for Duration of action on feeding: single injection
[4] = molecular target: T1, beta subunit of ATP synthase (Homo sapiens, UniProt P06576); settings: receptor protein on liver plasma membranes; cited from earlier work
T1 construct: from tissue; host or cells: liver plasma membranes
T1 sequence (P06576 48-529): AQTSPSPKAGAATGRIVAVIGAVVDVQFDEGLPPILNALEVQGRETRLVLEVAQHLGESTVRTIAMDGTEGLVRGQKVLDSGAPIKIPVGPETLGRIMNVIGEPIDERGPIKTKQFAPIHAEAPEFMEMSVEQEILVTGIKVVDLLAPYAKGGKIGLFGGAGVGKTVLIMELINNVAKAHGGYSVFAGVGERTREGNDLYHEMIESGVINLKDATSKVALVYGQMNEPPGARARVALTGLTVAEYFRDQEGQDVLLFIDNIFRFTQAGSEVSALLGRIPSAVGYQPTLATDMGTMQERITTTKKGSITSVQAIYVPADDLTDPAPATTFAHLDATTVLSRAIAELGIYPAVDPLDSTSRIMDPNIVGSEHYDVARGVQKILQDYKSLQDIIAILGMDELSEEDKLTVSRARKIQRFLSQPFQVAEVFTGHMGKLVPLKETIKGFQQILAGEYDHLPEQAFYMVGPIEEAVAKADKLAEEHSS
T1 sequence (P25705 44-553 partner): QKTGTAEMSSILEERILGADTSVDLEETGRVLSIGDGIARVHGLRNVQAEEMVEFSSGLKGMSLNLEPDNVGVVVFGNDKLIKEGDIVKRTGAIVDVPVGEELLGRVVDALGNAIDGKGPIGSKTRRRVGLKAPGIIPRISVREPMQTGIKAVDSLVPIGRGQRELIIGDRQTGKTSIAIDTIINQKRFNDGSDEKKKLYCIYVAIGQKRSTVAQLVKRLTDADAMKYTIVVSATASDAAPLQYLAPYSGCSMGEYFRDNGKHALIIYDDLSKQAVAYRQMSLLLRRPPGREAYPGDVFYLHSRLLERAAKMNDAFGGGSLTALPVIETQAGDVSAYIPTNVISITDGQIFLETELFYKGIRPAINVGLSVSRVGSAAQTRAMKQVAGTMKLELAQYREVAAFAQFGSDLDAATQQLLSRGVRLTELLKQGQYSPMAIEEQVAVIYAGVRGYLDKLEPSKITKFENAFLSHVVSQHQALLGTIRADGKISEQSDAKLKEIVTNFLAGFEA
T1 sequence (P36542 26-298 partner): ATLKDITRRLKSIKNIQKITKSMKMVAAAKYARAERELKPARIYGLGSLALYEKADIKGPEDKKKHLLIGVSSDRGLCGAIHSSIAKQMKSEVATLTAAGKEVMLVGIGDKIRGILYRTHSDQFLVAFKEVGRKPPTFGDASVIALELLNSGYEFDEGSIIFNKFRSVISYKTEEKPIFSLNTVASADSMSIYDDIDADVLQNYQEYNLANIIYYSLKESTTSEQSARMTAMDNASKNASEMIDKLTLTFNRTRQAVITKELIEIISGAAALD
T1 sequence (P30049 23-168 partner): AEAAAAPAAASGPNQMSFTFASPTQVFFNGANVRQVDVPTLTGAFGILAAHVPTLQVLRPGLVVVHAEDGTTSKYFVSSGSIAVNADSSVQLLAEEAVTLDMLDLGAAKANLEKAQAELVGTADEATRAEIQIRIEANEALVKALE
T1 sequence (P56381 2-51 partner limits assumed): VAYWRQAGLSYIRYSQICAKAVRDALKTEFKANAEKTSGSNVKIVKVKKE

[5] = molecular target: T2, Neuropeptide Y1 receptors (Homo sapiens, UniProt P25929); settings: cited from earlier work
T2 sequence (P25929 1-384): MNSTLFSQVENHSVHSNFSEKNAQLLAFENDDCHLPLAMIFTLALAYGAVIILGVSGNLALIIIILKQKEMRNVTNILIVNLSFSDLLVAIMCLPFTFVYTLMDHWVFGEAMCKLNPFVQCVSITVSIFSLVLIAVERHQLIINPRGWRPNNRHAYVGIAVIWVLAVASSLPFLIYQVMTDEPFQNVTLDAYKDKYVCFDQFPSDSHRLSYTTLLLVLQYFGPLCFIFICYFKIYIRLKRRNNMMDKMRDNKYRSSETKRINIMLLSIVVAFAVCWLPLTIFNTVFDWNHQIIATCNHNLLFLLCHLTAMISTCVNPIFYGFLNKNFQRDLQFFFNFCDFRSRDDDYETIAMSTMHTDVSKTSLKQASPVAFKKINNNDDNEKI

[6] = test system: C57B1/6 male mice; assay: Glucose tolerance test; assay type: in vivo, mouse; settings: 18 h fasted, vs control
Procedure: as §1, §2
Enterostatin Effect on Glucose Tolerance Tests: For glucose tolerance tests, mice were fasted overnight (18 hours). Enterostatin (5 or 25 ug/mouse in 0.1 ml saline vehicle) or saline vehicle was injected intraperitoneally (ip) 20 minutes before an intraperitoneal injection of glucose (1.0 mg/gm body weight). Blood samples were taken from the tail vein immediately before glucose administration, and then at 15, 30, 45 and 60 min after glucose injection. […]

[7] = test system: humans; settings: cited from earlier work
[8] = test system: rats; settings: cited from earlier work
[9] = indirect calorimetry; cited from earlier work
[10] = test system: baboons; settings: single-choice diet; cited from earlier work
[11] = test system: AMPK; assay: In vivo AMPK activity, Western blot of liver and hypothalamus; set-up: species or system mouse
Procedure: A separate set of mice (n=6/group) were fasted overnight (18 hours) before injection with either saline vehicle (0.1 ml) or enterostatin (5 or 25 ug/mouse) intraperitoneally. The mice were sacrificed by cervical dislocation either at 30 min (certain enterostatin-treated groups) or 60 min (both certain enterostatin- and vehicle-treated groups) after the injection. The tissues of liver and hypothalamus were rapidly dissected and frozen in liquid nitrogen. The tissues were stored at −80 C before processing for AMPK activity. For AMPK activity, the tissues were unfrozen, the cells lysed, and the cytosolic proteins subjected to Western blot analysis for AMPK and pAMPK activity.

[12] = peripheral and central administration; cited from earlier work
[13] = three-choice macronutrient diet

## Enterostatin: aminoterminal pentapeptide of procolipase released when procolipase is converted into colipase (VPDPR; printed: Val-Pro-Asp-Pro-Arg)
[1]
  Dose of peak increase in PKARIIβ: 10 nM
[1]; 5 mM glucose
  PKARIIβ: increase in PKARIIβ
[2]; 25 μg/mouse ip, 18 h fasted
  Blood glucose levels compared to saline control: rapid increase in blood glucose levels
[2]; 25 μg/mouse ip, at 15 and 30 min
  Increase in blood glucose versus saline vehicle: significantly greater
[2]; injection into mice
  Duration of raised glucose levels after injection: remained high for up to an hour after injection
  Time to increase in blood glucose levels after injection: ≤ 15 min
[3]; rats adapted to ad-libitum feeding
  Duration of action on feeding: up to 24 hours
[3]; rats adapted to six-hour feeding schedule
  Duration of action on feeding: lasting up to six hours
[3]; [13]
  Carbohydrate or protein intake: no effect
  Intake of the fat macronutrient: reduced intake of the fat macronutrient
[3]; two-choice high-fat / low-fat diet
  Intake of HF and LF diet: reduced only intake of the HF diet
[4]
  Kd: 2.5 nM
[5]
  Binding: not to bind
[6]; 5 μg/mouse ip 20 min before glucose 1.0 mg/gm
  Clearance of blood glucose: no differences
[6]; 25 μg/mouse ip 20 min before glucose 1.0 mg/gm
  Clearance of blood glucose: no differences
[7]
  Food intake: not been found to reduce food intake
[7]; intravenous injection
  Subjective feeling of hunger: reduce the subjective feeling of hunger
[8]; chronic icv, HF diets
  Fat deposition and body weight gain: reduction in fat deposition and body weight gain
[8]; chronic icv, single-choice HF or two-choice HF/LF diet
  Daily intake of dietary fat: attenuated the daily intake of dietary fat
[8]; chronic treatment, low-fat diet for seven days
  Energy intake or change in body weight gain: no significant reduction
[9]
  Fat oxidation: enhance fat oxidation
[10]
  Food intake: reduce food intake
[11]; 5 or 25 μg/mouse ip
  Hypothalamic pAMPK: unaltered
  Total AMPK: unaffected
[11]; 30 and 60 min after ip injection, even at lower dose (5 μg/mouse)
  Liver pAMPK levels: reduced
[12]
  Insulin levels: reduction in insulin levels
  Plasma glucose: without any changes in plasma glucose

— US20100267629A1, “Enterostatin as Therapeutic Agent for Hypoglycemia” (Board of Supervisors of Louisiana State University and …, priority 2006, published 2010)
